Converted amounts (≈) assume the structure as drawn. Peptide text beside a SMILES is read from it. Bounds are passed on as bounds.

Data set [1] deals with Staphylococcus pseudintermedius. Particulars: cited from earlier work.
The nature of data set [2]: in vitro. The format is cell-based, dog. Conditions: dog. How it is done:
(§1) The haemolytic activity of the 24 structurally related peptides (Table 1) was evaluated in erythrocytes from four different species (human, canine, bovine and rat) employing standard methodology. The subsequent release of haemoglobin was used to assess haemolytic activity as function of peptide and peptidomimetic concentration, with concentrations ranging from 0.15 to 150 µM (Presented in whole in Supplementary information Table S1–S4).
(§2) Human and rat (Sprague–Dawley) blood samples were purchased by Bioreclamation IVT (Westbury, NY, USA), collected in tubes containing heparin as anticoagulant and stored at 4 °C before use. Dog and bovine whole blood was collected from in-house animals at Zoetis Animal Health, Kalamazoo, Michigan and stored at 4 °C in tubes containing heparin as anticoagulant. 10 mL of each whole blood sample were centrifuged at 1,500 × g for 5 min and the resulting plasma fraction was removed from the samples. The pellets were washed with an equal volume (10 mL) of saline, mixing by inversion. The centrifuging and washing steps were repeated 5 times. After the last washing step, a volume of PBS was added, and the resulting samples were diluted 1:10 with PBS to yield an RBC concentration of ~ 5 × 10^8 RBC/mL. The assay was performed in a 384-well polypropylene microplate (Greiner 784201, Greiner Bio-One International, GMBH) through a Bravo Liquid Handling Platform 384 system (Agilent Technologies, Santa Clara, CA, USA) according to the previously published procedures. The compounds were tested in serial 1:1 dilutions in PBS, with final concentrations ranging from 150 to 1.2 µM. Melittin was used as reference lytic peptide. 1% TritonX100 and PBS were used as positive and negative (diluent) controls, respectively. The final concentrations were obtained by adding to the wells 7 µL of each solution, melittin or PBS, followed by 63 µL of RBCs to each well. The plate was sealed, shaken on a plate shaker for 20 s, incubated for one hour at 37 °C. Finally, it was centrifuged at 1,500 × g for 5 min at room temperature. 60 µL of supernatants were removed from all plate wells via a Bravo 384 robot and transferred to a flat-bottomed 384-well plate (Greiner UV-Star #7810801, Greiner Bio-One International, GMBH). The plate was centrifuged at 1,000 g for 1 min to remove air bubbles and optical density was measured at 405 nm using a plate reader. Percentage of haemolysis was calculated with the following equation: %haemolysis=(absorbance of test sample)-absorbance of diluent/absorbance of positive control-absorbance of diluent×100.

For another data set, the system named is canine erythrocytes. The data set can be described thus: in vitro. The format is cell-based, dog. Conditions: for IC10 haemolysis: canine erythrocytes; for IC50: red cells of canine. The procedure:
as §1, §2

A short description of data set [3]: in vitro. The format is cell-based, human. Conditions: human. How it is done: as §1, §2
The next data set relates to human erythrocytes. Description: in vitro. The format is cell-based. Particulars: for IC10 haemolysis: human erythrocytes; for IC50: red cells of human. The procedure: as §1, §2
A further data set has as its system rat erythrocytes. The data set can be described thus: in vitro. The format is cell-based, rat (Sprague–Dawley). Conditions: for IC10 haemolysis: rat erythrocytes; for IC50: red cells of rat. The procedure:
as §1, §2

The nature of data set [4]: in vitro. The format is cell-based, rat (Sprague–Dawley). Particulars: Sprague-Dawley, rat. How it is done: as §1, §2
For the next data set, the system named is Pseudomonas aeruginosa. Further details: method as in PMID 30842436. Conditions: cited from earlier work.
The subject of another data set is Staphylococcus aureus. Further details: method as in PMID 30842436. Conditions: cited from earlier work.
Data set [5] is described as follows: in vitro. The format is cell-based, bovine. Particulars: bovine. How it is done:
as §1, §2

For a further data set, the system named is bovine erythrocytes. The data set can be described thus: in vitro. Particulars: bovine erythrocytes. The format is cell-based. The procedure:
as §1, §2

Broadly, the IC50 is the point on the concentration scale where inhibition reaches its midpoint. `CC(C)C[C@@H](NC(=O)[C@H](CCCCN)NC(=O)[C@@H](Cc1ccc2ccccc2c1)NC(=O)[C@@H](Cc1ccccc1)NC(=O)[C@H](N)Cc1ccc2ccccc2c1)C(=O)N[C@@H](CCCCN)C(=O)N[C@@H](CCCCN)C(N)=O` [Compound 3, (2-Nal)Ala-Phe-(2-Nal)Ala-Lys-Leu-Lys-Lys] (HELM PEPTIDE1{[N[C@H](Cc1ccc2ccccc2c1)C(=O)[*:2]].[dF].[O=C([C@@H](Cc1ccc2ccccc2c1)N[*:1])[*:2]].K.[dL].K.K.[am]}$$$$V2.0): the “MIC against Staphylococcus pseudintermedius” value in [1] was 16 µg/mL (≈ 15.1 µM). Further, the hemolysis at 1 h, 150 µM in “in vitro [2]” was 10.5%; in the data set “in vitro [3]” it was < 8%; in “in vitro [4]”, < 8%; in the data set “in vitro [5]”, < 8%. For the same compound, the IC10 haemolysis in the data set on canine erythrocytes was 118.3 µM; with human erythrocytes, > 150 µM; in the data set with rat erythrocytes, > 150 µM. Moreover, the IC50 with canine erythrocytes, in the data set on human erythrocytes and in the data set with rat erythrocytes was > 150 µM each time. Also, the “MIC against Pseudomonas aeruginosa” value with Pseudomonas aeruginosa is listed as > 64 µg/mL. In addition, in the data set on Staphylococcus aureus, the “MIC against Staphylococcus aureus” value is 32 to 64 µg/mL.
Take `CC(C)C[C@@H](NC(=O)[C@H](CCCCN)NC(=O)[C@@H](N)CCCCN)C(=O)N[C@@H](CCCCN)C(=O)N[C@H](Cc1cccc2ccccc12)C(=O)N[C@H](Cc1ccccc1)C(=O)N[C@H](Cc1cccc2ccccc12)C(N)=O` [Compound 10, Lys-Lys-Leu-Lys-(1-Nal)Ala-Phe-(1-Nal)Ala] (HELM PEPTIDE1{K.K.[dL].K.[O=C([C@@H](Cc1cccc2ccccc12)N[*:1])[*:2]].[dF].[O=C([C@@H](Cc1cccc2ccccc12)N[*:1])[*:2]].[am]}$$$$V2.0): the “MIC against Staphylococcus pseudintermedius” value in [1] was 4 to 8 µg/mL. Besides, the hemolysis at 1 h, 150 µM in “in vitro [2]” was 36.3%; in “in vitro [3]”, < 8%; in “in vitro [4]”, < 8%; in “in vitro [5]”, < 8%. The IC10 haemolysis in the data set with canine erythrocytes is 43.4 µM; with human erythrocytes it was > 150 µM; with rat erythrocytes, > 150 µM. The half-inhibitory concentration (IC50) with canine erythrocytes, in the data set with human erythrocytes and with rat erythrocytes was > 150 µM throughout. For the same compound, the “MIC against Pseudomonas aeruginosa” value in the data set on Pseudomonas aeruginosa is 16 to 32 µg/mL. Further, the “MIC against Staphylococcus aureus” value in the data set on Staphylococcus aureus is 16 µg/mL (≈ 15.1 µM).
For `CC(C)C[C@@H](NC(=O)[C@H](CCCCN)NC(=O)[C@H](CCCCN)NC(=O)[C@@H](N)CCCCN)C(=O)N[C@H](Cc1ccc2ccccc2c1)C(=O)N[C@H](Cc1ccccc1)C(=O)N[C@H](Cc1ccc2ccccc2c1)C(N)=O` [Compound 12, Lys-Lys-Lys-Leu-(2-Nal)Ala-Phe-(2-Nal)Ala] (HELM PEPTIDE1{K.K.K.[dL].[O=C([C@@H](Cc1ccc2ccccc2c1)N[*:1])[*:2]].[dF].[O=C([C@@H](Cc1ccc2ccccc2c1)N[*:1])[*:2]].[am]}$$$$V2.0), the “MIC against Staphylococcus pseudintermedius” value in data set [1] is 2 to 4 µg/mL. Further, the hemolysis at 1 h, 150 µM in “in vitro [2]” was 50.2%; in “in vitro [3]”, 43.5%; in “in vitro [4]”, 17.9%; in “in vitro [5]”, < 8%. In addition, the figures for the IC10 haemolysis in the data set on canine erythrocytes, with human erythrocytes and with rat erythrocytes were 29.3 µM, 34.6 µM and 105.8 µM, respectively. For the same compound, the IC50 in the data set with canine erythrocytes, in the data set with human erythrocytes and in the data set with rat erythrocytes was > 150 µM in each case. The “MIC against Pseudomonas aeruginosa” value in the data set on Pseudomonas aeruginosa is 32 µg/mL (≈ 30.3 µM). For the same compound, the “MIC against Staphylococcus aureus” value in the data set on Staphylococcus aureus was 8 to 16 µg/mL.
Consider `CC(C)C[C@H](NC(=O)[C@H](CCCCN)NC(=O)[C@H](Cc1ccc2ccccc2c1)NC(=O)[C@H](Cc1ccccc1)NC(=O)[C@@H](N)Cc1ccc2ccccc2c1)C(=O)N[C@@H](CCCCN)C(=O)N[C@@H](CCCCN)C(N)=O` [Compound 13, (2-Nal)Ala-Phe-(2-Nal)Ala-Lys-Leu-Lys-Lys] (HELM PEPTIDE1{[N[C@@H](Cc1ccc2ccccc2c1)C(=O)[*:2]].F.[O=C([C@H](Cc1ccc2ccccc2c1)N[*:1])[*:2]].K.L.K.K.[am]}$$$$V2.0; N-terminus assumed), for which the “MIC against Staphylococcus pseudintermedius” value in data set [1] was 4 to 8 µg/mL. Besides, the hemolysis at 1 h, 150 µM was 27.4% in the data set “in vitro [2]”, 55.3% in “in vitro [3]”, < 8% in “in vitro [4]” and 17.6% in the data set “in vitro [5]”. Moreover, the IC10 haemolysis in the data set on canine erythrocytes is given as 27.1 µM; in the data set with human erythrocytes, 44.2 µM; in the data set on rat erythrocytes, > 150 µM; in the data set with bovine erythrocytes it was 96.7 µM. The IC50 in the data set with canine erythrocytes is > 150 µM; with human erythrocytes, 136 µM; in the data set on rat erythrocytes, > 150 µM. In addition, the “MIC against Pseudomonas aeruginosa” value with Pseudomonas aeruginosa was 64 µg/mL (≈ 60.6 µM). In addition, the “MIC against Staphylococcus aureus” value in the data set on Staphylococcus aureus was 16 µg/mL (≈ 15.1 µM).
For the compound `CC(C)C[C@H](NC(=O)[C@H](CCCCN)NC(=O)[C@H](CCCCN)NC(=O)[C@@H](N)CCCCN)C(=O)N[C@@H](Cc1cccc2ccccc12)C(=O)N[C@@H](Cc1ccc(O)cc1)C(=O)N[C@@H](Cc1cccc2ccccc12)C(N)=O` [Compound 19, Lys-Lys-Lys-Leu(1-Nal)Ala-Tyr-(1-Nal)Ala] (HELM PEPTIDE1{K.K.K.L.[O=C([C@H](Cc1cccc2ccccc12)N[*:1])[*:2]].Y.[O=C([C@H](Cc1cccc2ccccc12)N[*:1])[*:2]].[am]}$$$$V2.0), the hemolysis at 1 h, 150 µM is 101% in “in vitro [2]”, 82.7% in “in vitro [3]”, 101% in the data set “in vitro [4]” and < 8% in “in vitro [5]”. Further, the “Haemolysis at 80 µM (in words)” value in the data set on canine erythrocytes, with human erythrocytes and with rat erythrocytes was “near total haemolysis” throughout. In addition, the IC10 haemolysis with canine erythrocytes was 13.2 µM; in the data set on human erythrocytes it was 13.5 µM; with rat erythrocytes it was 45.0 µM. In addition, the IC50 in the data set on canine erythrocytes was determined as 20.8 µM; in the data set with human erythrocytes, 51.1 µM; in the data set on rat erythrocytes it was 74.9 µM. In the data set on Pseudomonas aeruginosa, the “MIC against Pseudomonas aeruginosa” value is given as > 64 µg/mL. In the data set with Staphylococcus aureus, the “MIC against Staphylococcus aureus” value is recorded as > 64 µg/mL.
In the case of `CCCC[C@H](NC(=O)[C@H](CCCCN)NC(=O)[C@H](CCCCN)NC(=O)[C@@H](N)CCCCN)C(=O)N[C@@H](Cc1ccc2ccccc2c1)C(=O)N[C@@H](Cc1ccc(O)cc1)C(=O)N[C@@H](Cc1ccc2ccccc2c1)C(N)=O` [Compound 22, Lys-Lys-Lys-Nle-(2-Nal)Ala-Tyr-(2-Nal)Ala] (HELM PEPTIDE1{K.K.K.[Nle].[O=C([C@H](Cc1ccc2ccccc2c1)N[*:1])[*:2]].Y.[O=C([C@H](Cc1ccc2ccccc2c1)N[*:1])[*:2]].[am]}$$$$V2.0), the “MIC against Staphylococcus pseudintermedius” value in data set [1] was 2 to 4 µg/mL. Also, the hemolysis at 1 h, 150 µM was 83% in “in vitro [2]”, 23.7% in “in vitro [3]”, 24.2% in the data set “in vitro [4]” and < 8% in the data set “in vitro [5]”. Also, the IC10 haemolysis was determined as 30.9 µM in the data set with canine erythrocytes, 88.3 µM in the data set on human erythrocytes and 83.0 µM in the data set on rat erythrocytes. The values for the IC50 in the data set with canine erythrocytes, in the data set with human erythrocytes and with rat erythrocytes were 71.2 µM, > 150 µM and > 150 µM, respectively. The “MIC against Pseudomonas aeruginosa” value with Pseudomonas aeruginosa is recorded as 64 µg/mL (≈ 59.7 µM). Besides, the “MIC against Staphylococcus aureus” value with Staphylococcus aureus was 64 µg/mL (≈ 59.7 µM).

(Values after article PMC7414031, “Correlation between hemolytic activity, cytotoxicity and systemic in vivo toxicity of synthetic antimicrobial peptides” (Scientific Reports, 2020).)
